Publication PMC11456916, “A screen for cell envelope stress uncovers an inhibitor of prolipoprotein diacylglyceryl transferase, Lgt, in Escherichiacoli” (iScience, 2024)

Tested on: 356 CRISPRi constructs in E. coli ΔtolC-pore
Experiment: CRISPRi collection fitness screen with sub-inhibitory compound
Assay type: cell-based
Conditions: for Growth represented as mean colony biomass: 1μg/ml MAC0452936, 6ng/ml LolCDE-in-1, 250 ng/ml Vancomycin, 7 ng/ml CHIR090, n=4; for Growth, mean colony biomass (n=4): + 6ng/ml LolCDE-in-1
Procedure, shortened: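 Mobile CRISPRi collection conjugated into the ΔtolC-pore strain and pinned on agar at 1536 density in technical quadruplicate with a sub-inhibitory MAC-0452936 concentration. No CRISPRi induction; only basal 5–10% knockdown.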

[1] = sub-inhibitory (¼ MIC) concentration, LB agar, basal knockdown

With `Fc1ccc(COc2cccc(-c3[nH]ncc3-c3ccncc3)c2)cc1` [LolCDE-in-1] the “Growth represented as mean colony biomass” value (shortened to “Growth represented”) (gRNA accA) was 1.008, the “Growth, mean colony biomass (n=4)” value (gRNA aceF) was 1.072 and the “Growth, mean colony biomass (n=4)” value (gRNA alaS) was 1.101. The “Growth, mean colony biomass (n=4)” value (gRNA argS) was 1.113, the “Growth, mean colony biomass (n=4)” value (gRNA asnS) was 1.091 and the “Growth, mean colony biomass (n=4)” value (gRNA bamA) was 1.074. The “Growth, mean colony biomass (n=4)” value (gRNA bamD) was 0.9928, the “Growth, mean colony biomass (n=4)” value (gRNA bioA) was 1.016 and the “Growth, mean colony biomass (n=4)” value (gRNA can) was 1.04. For the same compound, the “Growth represented” value (gRNA cca) was 1, the “Growth represented” value (gRNA coaA) was 1.117 and the “Growth, mean colony biomass (n=4)” value (gRNA csrA) was 0.5912. The “Growth represented” value (gRNA cydA) was 1.002, the “Growth represented” value (gRNA cydX) was 0.9564 and the “Growth represented” value (gRNA dapD) was 0.9627. The “Growth represented” value (gRNA dapE) was 0.9407, the “Growth represented” value (gRNA der) was 0.9198 and the “Growth represented” value (gRNA dfp) was 0.9029. The “Growth, mean colony biomass (n=4)” value (gRNA dnaC) was 1.011, the “Growth represented” value (gRNA dnaE) was 1.003 and the “Growth represented” value (gRNA dnaN) was 0.9294. For the same compound, the “Growth represented” value (gRNA dnaX) was 0.8532, the “Growth, mean colony biomass (n=4)” value (gRNA dut) was 1.113 and the “Growth represented” value (gRNA eno) was 1.0061. The “Growth represented” value (gRNA era) was 0.9669, the “Growth represented” value (gRNA fabA) was 0.9879 and the “Growth represented” value (gRNA fabG) was 0.9717. For the same compound, the “Growth represented” value (gRNA fabI) was 0.9771, the “Growth represented” value (gRNA fdx) was 0.998 and the “Growth represented” value (gRNA fldA) was 1.014. The “Growth, mean colony biomass (n=4)” value (gRNA folA) was 1.074, the “Growth represented” value (gRNA folB) was 1.004 and the “Growth, mean colony biomass (n=4)” value (gRNA folC) was 0.9924. For the same compound, the “Growth represented” value (gRNA folE) was 1.028, the “Growth represented” value (gRNA folP) was 1.013 and the “Growth represented” value (gRNA frr) was 0.8456. The “Growth, mean colony biomass (n=4)” value (gRNA ftsA) was 0.866, the “Growth represented” value (gRNA gapA) was 0.9875 and the “Growth, mean colony biomass (n=4)” value (gRNA glmS) was 1.023. The “Growth represented” value (gRNA glmU) was 0.9948, the “Growth represented” value (gRNA gltX) was 1.01 and the “Growth, mean colony biomass (n=4)” value (gRNA glyA) was 0.9609. For the same compound, the “Growth represented” value (gRNA groS) was 0.8911, the “Growth represented” value (gRNA grpE) was 0.9325 and the “Growth represented” value (gRNA guaA) was 1.005. The “Growth, mean colony biomass (n=4)” value (gRNA hemD) was 1.064, the “Growth represented” value (gRNA hemG) was 0.9487 and the “Growth represented” value (gRNA hemH) was 0.9202. The “Growth represented” value (gRNA hemL) was 0.9936, the “Growth represented” value (gRNA higA) was 0.9523 and the “Growth represented” value (gRNA hisS) was 0.9867. For the same compound, the “Growth represented” value (gRNA holD) was 1.037, the “Growth represented” value (gRNA hscA) was 1.068 and the “Growth, mean colony biomass (n=4)” value (gRNA infA) was 1.13. The “Growth represented” value (gRNA infC) was 0.9943, the “Growth represented” value (gRNA iscU) was 0.9298 and the “Growth represented” value (gRNA ispB) was 0.9724. The “Growth represented” value (gRNA ispF) was 0.9965, the “Growth, mean colony biomass (n=4)” value (gRNA leuS) was 1.148 and the “Growth, mean colony biomass (n=4)” value (gRNA lexA) was 0.4661. The “Growth represented” value (gRNA lolC) was 0.5845, the “Growth, mean colony biomass (n=4)” value (gRNA lptA) was 1.047 and the “Growth, mean colony biomass (n=4)” value (gRNA lptB) was 0.9337. The “Growth represented” value (gRNA lptC) was 0.8997, the “Growth represented” value (gRNA lptE) was 0.9982 and the “Growth represented” value (gRNA lptF) was 0.9678. For the same compound, the “Growth represented” value (gRNA lptG) was 1.0135, the “Growth represented” value (gRNA lpxC) was 0.9296 and the “Growth represented” value (gRNA lpxD) was 0.9894. The “Growth, mean colony biomass (n=4)” value (gRNA mnmA) was 1.137, the “Growth, mean colony biomass (n=4)” value (gRNA mrdB) was 0.9351 and the “Growth represented” value (gRNA mreB) was 0.9708. The “Growth represented” value (gRNA mreC) was 0.8551, the “Growth, mean colony biomass (n=4)” value (gRNA msbA) was 1.057 and the “Growth, mean colony biomass (n=4)” value (gRNA mukF) was 0.8694. For the same compound, the “Growth represented” value (gRNA murB) was 1.046, the “Growth represented” value (gRNA murC) was 0.881 and the “Growth, mean colony biomass (n=4)” value (gRNA murI) was 0.5015. For the same compound, the “Growth, mean colony biomass (n=4)” value (gRNA nadK) was 1.043, the “Growth represented” value (gRNA nusB) was 0.9929 and the “Growth represented” value (gRNA plsB) was 0.8854. The “Growth, mean colony biomass (n=4)” value (gRNA prmC) was 1.031, the “Growth represented” value (gRNA proS) was 1.0017 and the “Growth, mean colony biomass (n=4)” value (gRNA psd) was 1.234. For the same compound, the “Growth, mean colony biomass (n=4)” value (gRNA pssA) was 0.9781, the “Growth, mean colony biomass (n=4)” value (gRNA ptsI) was 1.151 and the “Growth represented” value (gRNA racR) was 0.9577. The “Growth, mean colony biomass (n=4)” value (gRNA rho) was 1.25, the “Growth represented” value (gRNA ribA) was 0.9663 and the “Growth represented” value (gRNA ribC) was 0.899. The “Growth, mean colony biomass (n=4)” value (gRNA ribD) was 1.034, the “Growth represented” value (gRNA ribF) was 0.9681 and the “Growth represented” value (gRNA rimM) was 1.015. For the same compound, the “Growth represented” value (gRNA rluD) was 1.0361, the “Growth, mean colony biomass (n=4)” value (gRNA rne) was 1.086 and the “Growth represented” value (gRNA rpe) was 1.032. For the same compound, the “Growth, mean colony biomass (n=4)” value (gRNA rplA) was 1.044, the “Growth represented” value (gRNA rplD) was 0.9769 and the “Growth represented” value (gRNA rplE) was 0.973. For the same compound, the “Growth represented” value (gRNA rplJ) was 0.9047, the “Growth represented” value (gRNA rplO) was 0.9645 and the “Growth, mean colony biomass (n=4)” value (gRNA rplP) was 1.111. For the same compound, the “Growth represented” value (gRNA rplQ) was 1.063, the “Growth represented” value (gRNA rplS) was 0.9823 and the “Growth, mean colony biomass (n=4)” value (gRNA rplV) was 1.159. The “Growth, mean colony biomass (n=4)” value (gRNA rplX) was 1.003, the “Growth represented” value (gRNA rplY) was 1.022 and the “Growth, mean colony biomass (n=4)” value (gRNA rpmC) was 1.247. For the same compound, the “Growth represented” value (gRNA rpmH) was 0.9499, the “Growth represented” value (gRNA rpmI) was 0.8822 and the “Growth, mean colony biomass (n=4)” value (gRNA rpoC) was 0.9718. For the same compound, the “Growth, mean colony biomass (n=4)” value (gRNA rpoE) was 1.012, the “Growth represented” value (gRNA rpoH) was 1.025 and the “Growth, mean colony biomass (n=4)” value (gRNA rpsC) was 0.9823. For the same compound, the “Growth, mean colony biomass (n=4)” value (gRNA rpsD) was 1.397, the “Growth represented” value (gRNA rpsE) was 1.159 and the “Growth represented” value (gRNA rpsF) was 1.092. The “Growth, mean colony biomass (n=4)” value (gRNA rpsG) was 0.9387, the “Growth represented” value (gRNA rpsH) was 1.028 and the “Growth, mean colony biomass (n=4)” value (gRNA rpsK) was 1.066. The “Growth, mean colony biomass (n=4)” value (gRNA rpsL) was 0.9811, the “Growth, mean colony biomass (n=4)” value (gRNA rpsM) was 1.056 and the “Growth, mean colony biomass (n=4)” value (gRNA rpsR) was 1.049. For the same compound, the “Growth, mean colony biomass (n=4)” value (gRNA rpsT) was 1.1909, the “Growth represented” value (gRNA rsgA) was 0.9518 and the “Growth represented” value (gRNA safA) was 0.9369. The “Growth, mean colony biomass (n=4)” value (gRNA secA) was 1.053, the “Growth represented” value (gRNA secY) was 1.019 and the “Growth represented” value (gRNA serS) was 1.011. The “Growth represented” value (gRNA ssb) was 1.001, the “Growth represented” value (gRNA sucA) was 0.955 and the “Growth, mean colony biomass (n=4)” value (gRNA suhB) was 0.9525. The “Growth represented” value (gRNA tilS) was 0.9992, the “Growth represented” value (gRNA tonB) was 0.9792 and the “Growth represented” value (gRNA trmD) was 0.9503. The “Growth represented” value (gRNA tsaB) was 1.056, the “Growth represented” value (gRNA tsaD) was 0.9679 and the “Growth, mean colony biomass (n=4)” value (gRNA tsaE) was 1. The “Growth represented” value (gRNA tsf) was 1.027, the “Growth represented” value (gRNA tusE) was 1.013 and the “Growth represented” value (gRNA tyrS) was 1.017. The “Growth represented” value (gRNA ubiB) was 0.9814, the “Growth represented” value (gRNA ubiD) was 0.9742 and the “Growth, mean colony biomass (n=4)” value (gRNA waaA) was 1.024. The “Growth represented” value (gRNA ydaS) was 0.9646, the “Growth represented” value (gRNA ydcD) was 0.9635 and the “Growth represented” value (gRNA ydhL) was 0.9757. The “Growth, mean colony biomass (n=4)” value (gRNA yedN) was 1.025, the “Growth represented” value (gRNA yejM) was 1.046 and the “Growth represented” value (gRNA yffS) was 1.013. For the same compound, the “Growth represented” value (gRNA ygeF) was 0.9624, the “Growth, mean colony biomass (n=4)” value (gRNA ygeN) was 1.008 and the “Growth represented” value (gRNA yidC) was 0.8393. For the same compound, the “Growth represented” value (gRNA ymfE) was 0.903, the “Growth represented” value (gRNA ymiB) was 0.9243 and the “Growth, mean colony biomass (n=4)” value (gRNA yqeL) was 1.1914. The “Growth represented” value (gRNA yqgF) was 0.9509, the “Growth, mean colony biomass (n=4)” value (gRNA zipA) was 1.134 and the “growth defect of CRISPRi strains for the compound's molecular target (LolCDE complex and LpxC, respectively)” value [1] was “strongest growth defect”. For the same compound, the “growth defect of the lgt CRISPRi mutant in the presence of compound” value [1] was “did not demonstrate a growth defect”.
